Measurements as given in patent US20240400591A1 (Jacobio Pharmaceuticals Co., Ltd., priority 2021, published 2024).
Where two headings read alike, the source gives them in different places.

What was measured:
[1] = tested on: NUGC-3_P53_Luc single clonal cell line (p53 Y220C); experiment: Reporter gene assay (p53 RE luciferase); assay type: cell-based; conditions: luciferase reporter, 6 hours, normalized to Ref-1a (10 μM) high control, read-out: p53(Y220C)_NUGC-3 EC50
In short: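 Luminescence normalised to DMSO-only (0%) and 10 μM Ref-1a (100%) wells gives % activity, fitted by 4-parameter logistic or Excel to yield EC50 at 50%. Reporter line: NUGC-3 with p53 response element-luc2P, compound-treated 6 h at 37 °C.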

[2] = tested on: NUGC3 (P53 Y220C); experiment: Cell viability assay (CellTiter-Glo, 6 days), NUGC3; assay type: cell-based; conditions: cell viability, 6 days, CellTiter-Glo, read-out: NUGC3 (P53 Y220C) IC50
In short: (§1)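 After a 6-day compound exposure following overnight plating, ATP luminescence (CellTiter-Glo) gave percent viability relative to DMSO-treated cells and cell-free medium controls. IC50 = concentration at 50% viability, from 4-parameter logistic or Excel fit.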

[3] = molecular target: T1, His-p53 Y220C (94-294) protein (Homo sapiens, UniProt P04637, Y220C); experiment: In vitro DNA binding assay (HTRF); assay type: biochemical; conditions: % activation normalized to 2 μM Ref-1a high control
T1 construct: His-p53 Y220C (94-294) protein

[4] = tested on: NUGC4 (P53 WT); experiment: Cell viability assay (CellTiter-Glo, 6 days), NUGC4; assay type: cell-based; conditions: cell viability, 6 days, CellTiter-Glo, read-out: NUGC4 (P53 WT) IC50
In short: as §1

Row | EC50 [3] [nM] | Compound | EC50 ([1]; Homo sapiens, NUGC-3, 6 h) [nM] | IC50 ([2]; Homo sapiens, NUGC-3, 144 h) [nM] | IC50 ([4]; Homo sapiens, NUGC-4, 144 h) [µM] | EC50 ([1]; Homo sapiens, NUGC-3) [nM] | EC50 [1] [nM] | IC50 [2] [nM] | IC50 [4] [µM]
1 | 46 | COc1cc(P2(=O)CCN(C(=O)C3CC3)CC2)ccc1NCC#Cc1sc2c(N[C@@H]3CCN(C)C[C@@H]3F)cccc2c1CC(F)(F)F [Example 149, cyclopropyl(4-(4-((3-(7-(((3S,4R)-3-fluoro-1-methylpiperidin-4-yl)amino)-3-(2,2,2-trifluoroethyl)benzo[b]thiophen-2-yl)prop-2-yn-1-yl)amino)-3-methoxyphenyl)-4-oxido-1,4-azaphosphinan-1-yl)methanone] | – | 370 | 3.7 | 90 | – | – | –
2 | 35 | CN1CC[C@@H](Nc2cccc3c(CC(F)(F)F)c(C#CCNc4ccc(P(C)(C)=O)cc4OC4CC4)sc23)[C@@H](F)C1 [Example 150, (3-cyclopropoxy-4-((3-(7-(((3S,4R)-3-fluoro-1-methylpiperidin-4-yl)amino)-3-(2,2,2-trifluoroethyl)benzo[b]thiophen-2-yl)prop-2-yn-1-yl)amino)phenyl)dimethylphosphine oxide] | – | 390 | 9.92 | 80 | – | – | –
3 | 19 | CN1CCC(Nc2cccc3c(CC(F)(F)F)c(C#CCNc4ccc(P(C)(C)=O)c5c4OCC5)sc23)C(F)C1 (centres unmarked) [Example 152, (7-((3-(7-(((Z)-3-fluoro-1-methylpiperidin-4-yl)amino)-3-(2,2,2-trifluoroethyl)benzo[b]thiophen-2-yl)prop-2-yn-1-yl)amino)-2,3-dihydrobenzofuran-4-yl)dimethylphosphine oxide] | – | – | – | – | 120 | 1020 | 6.69
4 | 31 | COc1nc(P(C)(C)=O)ccc1NCC#Cc1sc2c(N[C@@H]3CCN(C)C[C@@H]3F)cccc2c1CC(F)(F)F [Example 153, (5-((3-(7-(((3S,4R)-3-fluoro-1-methylpiperidin-4-yl)amino)-3-(2,2,2-trifluoroethyl)benzo[b]thiophen-2-yl)prop-2-yn-1-yl)amino)-6-methoxypyridin-2-yl)dimethylphosphine oxide] | – | 370 | 4.07 | 100 | – | – | –
5 | 67 | COc1cc(P(C)(C)=O)ccc1NCC#Cc1sc2c(NC3CCN(C4CCOCC4)CC3)cccc2c1CC(F)(F)F [Example 154, (3-methoxy-4-((3-(7-((1-(tetrahydro-2H-pyran-4-yl)piperidin-4-yl)amino)-3-(2,2,2-trifluoroethyl)benzo[b]thiophen-2-yl)prop-2-yn-1-yl)amino)phenyl)dimethylphosphine oxide] | – | 1890 | 4.19 | 410 | – | – | –
6 | 68 | COc1cc(P(C)(C)=O)ccc1NCC#Cc1sc2c(N[C@@H]3CCN(C4CCOC4)C[C@@H]3F)cccc2c1CC(F)(F)F (stereo partly drawn) [Example 157, (4-((3-(7-(((3S,4R)-3-fluoro-1-(tetrahydrofuran-3-yl)piperidin-4-yl)amino)-3-(2,2,2-trifluoroethyl)benzo[b]thiophen-2-yl)prop-2-yn-1-yl)amino)-3-methoxyphenyl)dimethylphosphine oxide] | – | 530 | 4.84 | 110 | – | – | –
7 | 41 | CNC(=O)c1cc(NCC#Cc2sc3c(N[C@@H]4CCN(C5CCOCC5)C[C@@H]4F)cccc3c2CC(F)(F)F)c(OC)cc1P(C)(C)=O [Example 160, 2-dimethylphosphoryl-5-[3-[7-[[(3S,4R)-3-fluoro-1-tetrahydropyran-4-yl-4-piperidyl]amino]-3-(2,2,2-trifluoroethyl)benzothiophen-2-yl]prop-2-ynylamino]-4-methoxy-N-methyl-benzamide] | – | 1410 | > 50 | 190 | – | – | –
8 | 73 | CP(C)(=O)c1ccc(NCC#Cc2sc3c(N[C@@H]4CCN(C5CCOCC5)C[C@@H]4F)cccc3c2CC(F)(F)F)c(OC2CC2)c1 [Example 161, (3-cyclopropoxy-4-((3-(7-(((3S,4R)-3-fluoro-1-(tetrahydro-2H-pyran-4-yl)piperidin-4-yl)amino)-3-(2,2,2-trifluoroethyl)benzo[b]thiophen-2-yl)prop-2-yn-1-yl)amino)phenyl)dimethylphosphine oxide] | – | 1150 | 12.9 | 120 | – | – | –
9 | 50 | CN1CC[C@@H](Nc2cccc3c(CC(F)(F)F)c(C#CCNc4ccc(P(C)(C)=O)c5c4OCO5)sc23)[C@@H](F)C1 [Example 163, (7-((3-(7-(((3S,4R)-3-fluoro-1-methylpiperidin-4-yl)amino)-3-(2,2,2-trifluoroethyl)benzo[b]thiophen-2-yl)prop-2-yn-1-yl)amino)benzo[d][1,3]dioxol-4-yl)dimethylphosphine oxide] | – | 1210 | 3.82 | 180 | – | – | –
10 | 48 | CN1CC[C@@H](Nc2cccc3c(CC(F)(F)F)c(C#CCOc4ccc(P(C)(C)=O)cc4C(N)=O)sc23)[C@@H](F)C1 [Example 165, 5-(dimethylphosphoryl)-2-((3-(7-(((3S,4R)-3-fluoro-1-methylpiperidin-4-yl)amino)-3-(2,2,2-trifluoroethyl)benzo[b]thiophen-2-yl)prop-2-yn-1-yl)oxy)benzamide] | – | 20500 | > 50 | 4220 | – | – | –
11 | 60 | COc1cc(-c2ncn(C)n2)ccc1NCC#Cc1sc2c(N[C@@H]3CCN(C)C[C@@H]3F)cccc2c1CC(F)(F)F [Example 172, (3S,4R)-3-fluoro-N-(2-(3-((2-methoxy-4-(1-methyl-1H-1,2,4-triazol-3-yl)phenyl)amino)prop-1-yn-1-yl)-3-(2,2,2-trifluoroethyl)benzo[b]thiophen-7-yl)-1-methylpiperidin-4-amine] | – | 1510 | 7.55 | 180 | – | – | –
12 | 15 | [2H]C([2H])([2H])Oc1cc(P(C)(C)=O)ccc1NCC#Cc1sc2c(N[C@@H]3CCN(C)C[C@@H]3F)cccc2c1CC(F)(F)F [Example 174, (4-((3-(7-(((3S,4R)-3-fluoro-1-methylpiperidin-4-yl)amino)-3-(2,2,2-trifluoroethyl)benzo[b]thiophen-2-yl)prop-2-yn-1-yl)amino)-3-(methoxy-d3)phenyl)dimethylphosphine oxide] | – | 350 | 5.93 | 60 | – | – | –
13 | 66 | CN1CC[C@@H](Nc2cccc3c(CC(F)(F)F)c(C#CCNc4ccc(P(C)(C)=O)cc4S(C)(=O)=O)sc23)[C@@H](F)C1 [Example 175, (4-((3-(7-(((3S,4R)-3-fluoro-1-methylpiperidin-4-yl)amino)-3-(2,2,2-trifluoroethyl)benzo[b]thiophen-2-yl)prop-2-yn-1-yl)amino)-3-(methylsulfonyl)phenyl)dimethylphosphine oxide] | – | 3550 | 35.2 | 640 | – | – | –
14 | 50 | COc1cc(P(C)(C)=O)ccc1NCC#Cc1sc2c(N[C@@H]3CCN(C4CC5CCC(C4)O5)C[C@@H]3F)cccc2c1CC(F)(F)F (stereo partly drawn) [Example 180, (4-((3-(7-(((3S,4R)-1-(8-oxabicyclo[3.2.1]octan-3-yl)-3-fluoropiperidin-4-yl)amino)-3-(2,2,2-trifluoroethyl)benzo[b]thiophen-2-yl)prop-2-yn-1-yl)amino)-3-methoxyphenyl)dimethylphosphine oxide] | – | 910 | 5.89 | 110 | – | – | –
15 | 58 | COc1cc(P(C)(C)=O)ccc1NCC#Cc1sc2c(NC3CC4CN(C)CC4C3)cccc2c1CC(F)(F)F (centres unmarked) [Example 182] | – | 2030 | 3.74 | 480 | – | – | –

Row | Compound | EC50 [3] [nM] | EC50 ([1]; Homo sapiens, NUGC-3, 6 h) [nM] | IC50 ([2]; Homo sapiens, NUGC-3, 144 h) [nM] | IC50 ([4]; Homo sapiens, NUGC-4, 144 h) [µM] | EC50 ([1]; Homo sapiens, NUGC-3) [nM] | EC50 [1] [nM] | IC50 [2] [nM] | IC50 [4] [µM]
16 | COc1cc(P(C)(C)=O)ccc1NCC#Cc1sc2c(N[C@H]3CCN(C4CCOCC4)C[C@H]3F)cccc2c1CC(F)(F)F [Example 148, (4-((3-(7-(((3R,4S)-3-fluoro-1-(tetrahydro-2H-pyran-4-yl)piperidin-4-yl)amino)-3-(2,2,2-trifluoroethyl)benzo[b]thiophen-2-yl)prop-2-yn-1-yl)amino)-3-methoxyphenyl)dimethylphosphine oxide] | 147 | 210 | 1560 | 3.08 | – | – | – | –
17 | COc1cc(P(C)(C)=O)ccc1NCC#Cc1sc2c(N[C@@H]3CCN(C)C[C@@H]3Cl)cccc2c1CC(F)(F)F [Example 158, (3S,4R)-3-chloro-N-[2-[3-(4-dimethylphosphoryl-2-methoxy-anilino)prop-1-ynyl]-3-(2,2,2-trifluoroethyl)benzothiophen-7-yl]-1-methyl-piperidin-4-amine] | 30 | 90 | 370 | 3.95 | – | – | – | –
